Results published in the OligoGym collection.
Bases are written 5' to 3'; sugars and linkages follow in the same order, as letters with counts (s phosphorothioate, o phosphodiester; PS: all linkages phosphorothioate). The collection does not say whether C is 5-methylated. l = locked nucleic acid (LNA); d = 2'-deoxy (DNA)

Target: STC1
Experiment: rat primary cortical neurons, FLIPR, 25 uM ASO

Going from “TTACCCAAATACACACAT (sugars l4 d10 l4, PS)” to ATAGTTATTCCATTCC (sugars l4 d10 l2, PS), the calcium oscillation score falls from 137 % of control to 105 % of control.

Compared with TAGTTATTCCATTCCC (sugars l2 d12 l2, PS), “CTAATTATATATTTCCAC (sugars l4 d10 l4, PS)” is higher in calcium oscillation score: 92.3 % of control for the first, 119 % of control for the second.

Compared with TTACCCAAATACACACA (sugars l4 d9 l4, PS), ACATTCAAGCCTTTCC (sugars l4 d10 l2, PS) is lower in calcium oscillation score: 143 % of control for the first, 81.6 % of control for the second.

Compared with CAACATTCAAGCCTTT (sugars l5 d7 l4, PS), “TATTATTCTTCTGTTTC (sugars l3 d10 l4, PS)” is lower in calcium oscillation score: 89.1 % of control for the first, 53.4 % of control for the second.

Going from ATCAATATTATTCTTCT (sugars l5 d8 l4, PS) to “TCAATATTATTCTTCTG (sugars l2 d11 l4, PS)”, the calcium oscillation score falls from 122 % of control to 35.4 % of control.

Going from “TTACCCAAATACACACATA (sugars l3 d12 l4, PS)” to “TAGTTATTCCATTCCCA (sugars l2 d13 l2, PS)”, the calcium oscillation score falls from 119 % of control to 99.3 % of control.

Compared with “CTATTTATATTCCACAG (sugars l4 d11 l2, PS)”, AACATTCAAGCCTTTC (sugars l3 d9 l4, PS) is higher in calcium oscillation score: 69.8 % of control for the first, 109 % of control for the second.

First: TTACAAGTCATTTCCCT (sugars l4 d11 l2, PS)
Second: ATTATTCTTCTGTTTCC (sugars l2 d11 l4, PS)
The calcium oscillation score of the first is higher: 91.8 % of control for the first, 67.6 % of control for the second.

Compared with “TATTTATATTCCACAGT (sugars l3 d10 l4, PS)”, ACCTGTAACTACTTCC (sugars l3 d11 l2, PS) is lower in calcium oscillation score: 107 % of control for the first, 100 % of control for the second.

In the case of “AGCTATTTATATTCCAC (sugars l2 d11 l4, PS)”, the calcium oscillation score is reported as 122 % of control.

Target: Tau
Experiment: rat primary cortical neurons, FLIPR, 25 uM ASO

First: ACTTTATTTCCAAATTCACTTTTAC (sugars l1 d19 l5, PS)
Second: TGATATTATCCTTTGAGCCA (sugars l3 d14 l3, PS)
The calcium oscillation score of the first is higher: 86.5 % of control for the first, 27.4 % of control for the second.

First: AAAGTACTATCCACTT (sugars l4 d8 l4, PS)
Second: AGCCACACTTGGAGGTCACC (sugars l3 d14 l3, PS)
The calcium oscillation score of the first is higher: 79.1 % of control for the first, 0 % of control for the second.

First: AAACTTTTACTCTGACT (sugars l4 d9 l4, PS)
Second: TCTTCACATCCCAACTA (sugars l2 d12 l3, PS)
The calcium oscillation score of the first is lower: 59.4 % of control for the first, 126 % of control for the second.

Compared with “TGAAGTCCCGAGCCAAAGCC (sugars l3 d14 l3, PS)”, “TTATTTCCAAATTCACTTTT (sugars lldllddddddddddldlll, PS)” is higher in calcium oscillation score: 0 % of control for the first, 81 % of control for the second.

First: TTATTTCCAAATTCACTTTT (sugars l2 d16 l2, PS)
Second: TTGATACCCTTCCTCA (sugars l3 d10 l3, PS)
The calcium oscillation score of the first is higher: 182 % of control for the first, 14.3 % of control for the second.

Going from “TATTTCCAAATTCACTTTTA (sugars lldldlddddddddddllll, PS)” to “TCAGCTAAGACCCTCAGGTT (sugars l3 d14 l3, PS)”, the calcium oscillation score falls from 127 % of control to 33 % of control.

Going from “TTAGACCACATTTCCAT (sugars l3 d11 l3, PS)” to GCATGATTGTGGGCT (sugars l3 d9 l3, PS), the calcium oscillation score falls from 96 % of control to 0 % of control.

Going from “CTCAGCTCTTCCATAAGCAG (sugars l3 d14 l3, PS)” to “CATCTAAACACCTCAATCCA (sugars l2 d16 l2, PS)”, the calcium oscillation score rises from 40.3 % of control to 72.6 % of control.

First: CATGATCTTAGGCT (sugars l3 d8 l3, PS)
Second: ATACAATAAATACCATATTC (sugars l3 d14 l3, PS)
The calcium oscillation score of the first is lower: 25.3 % of control for the first, 81 % of control for the second.

Going from “TTACTGATCATAATCCT (sugars l4 d10 l3, PS)” to TAGCCCTAAAGTCC (sugars l3 d8 l3, PS), the calcium oscillation score rises from 67.3 % of control to 87.6 % of control.

First: GCAGGTTAAGTGATTAACCA (sugars l3 d14 l3, PS)
Second: CCCACAGCACTAAATTT (sugars l3 d11 l3, PS)
The calcium oscillation score of the first is lower: 36.3 % of control for the first, 83.5 % of control for the second.

Compared with “ACTTATCTATCCATCTATT (sugars l3 d12 l4, PS)”, “ACCCTTGATCATATTTGTGG (sugars l3 d14 l3, PS)” is lower in calcium oscillation score: 55.8 % of control for the first, 30.9 % of control for the second.

Compared with GTCCCGAGCCAAAGCC (sugars l3 d10 l3, PS), “TTATTTCCAAATTCACTTTT (sugars llldldddddddddllddll, PS)” is higher in calcium oscillation score: 31.3 % of control for the first, 110 % of control for the second.

Going from “TGAGCCACACTTGGAGGTCA (sugars l3 d14 l3, PS)” to “CACATGCACCCAACTCTA (sugars l2 d13 l3, PS)”, the calcium oscillation score rises from 4.52 % of control to 60.2 % of control.

Compared with TCCAGTCCCGTCTTTG (sugars l3 d10 l3, PS), “CCAGATTCCCCAACTCAC (sugars l3 d13 l2, PS)” is higher in calcium oscillation score: 11.5 % of control for the first, 89 % of control for the second.

Compared with CCCCTCCATTAAGAAC (sugars l3 d11 l2, PS), “CCTAGAACACAACACAC (sugars l3 d10 l4, PS)” is lower in calcium oscillation score: 68.1 % of control for the first, 58.6 % of control for the second.

Going from “GACTGCTCAGCTAAGACCCT (sugars l3 d14 l3, PS)” to TTGAAGTCCCGAGCCA (sugars l3 d10 l3, PS), the calcium oscillation score falls from 31.2 % of control to 2.38 % of control.

Going from TGATAAAACATCCCTA (sugars l4 d8 l4, PS) to “CTTTCTACTCAATTCCAG (sugars l3 d12 l3, PS)”, the calcium oscillation score falls from 80.5 % of control to 45.5 % of control.

Going from TGGATATAGTTAAGGC (sugars l2 d11 l3, PS) to “CCAATTATCTTTAAATTCTA (sugars l4 d13 l3, PS)”, the calcium oscillation score falls from 95.2 % of control to 70.7 % of control.

Going from AACTGGTTAGCCCTAA (sugars l3 d10 l3, PS) to “CATCAATTTGGAAAGATGAA (sugars l3 d14 l3, PS)”, the calcium oscillation score rises from 31.3 % of control to 62.5 % of control.

Going from “GCCCCACTTTTAATTAA (sugars l2 d11 l4, PS)” to “AATTTGGAAAGATGAAATTT (sugars l3 d14 l3, PS)”, the calcium oscillation score falls from 86.2 % of control to 0 % of control.

First: CAACTCAAACACTAACTT (sugars l4 d10 l4, PS)
Second: TCTTAGAGGACTGCAACGCA (sugars l3 d14 l3, PS)
The calcium oscillation score of the first is higher: 64.5 % of control for the first, 25.7 % of control for the second.

First: TTCTCACCAAACCCAGA (sugars l3 d12 l2, PS)
Second: TATTGAACTCACCCACTC (sugars l2 d13 l3, PS)
The calcium oscillation score of the first is lower: 57.8 % of control for the first, 69 % of control for the second.

Compared with AATCCTGTGCTTCAGG (sugars l3 d10 l3, PS), CGAGTCTACCATGTCG (sugars l3 d10 l3, PS) is higher in calcium oscillation score: 73 % of control for the first, 103 % of control for the second.

First: GCCTCTAGCCACATGGACCC (sugars l3 d14 l3, PS)
Second: TTTATTTCCAAATTCACTTT (sugars ldlllddddddddddlldll, PS)
The calcium oscillation score of the first is lower: 4.03 % of control for the first, 83.1 % of control for the second.

Going from “CTCATCAACACCTTTTAATT (sugars l4 d14 l2, PS)” to “ATTTCCAAATTCACTTTTAC (sugars llldldddddddddlddlll, PS)”, the calcium oscillation score rises from 78.7 % of control to 118 % of control.

Going from “TCTCAAATCAAACTAATAT (sugars l4 d11 l4, PS)” to “AGTTCCCACAATTCCTAC (sugars l2 d13 l3, PS)”, the calcium oscillation score falls from 58.1 % of control to 50.4 % of control.

Compared with “TTGGAAAGATGAAATTTGCT (sugars l3 d14 l3, PS)”, “ACTAGCCCACCCATCAATTT (sugars l3 d14 l3, PS)” is higher in calcium oscillation score: 1.45 % of control for the first, 12.9 % of control for the second.

First: GTCTTCACATCCCAACT (sugars l4 d11 l2, PS)
Second: TCCCTTAATTTCAC (sugars l3 d8 l3, PS)
The calcium oscillation score of the first is lower: 82.1 % of control for the first, 133 % of control for the second.

Going from “ATTAATTATTAAATCTTCTC (sugars l4 d12 l4, PS)” to “TCAAACACACCTTCATTTAC (sugars l2 d14 l4, PS)”, the calcium oscillation score rises from 72.6 % of control to 82.2 % of control.

Going from “CTTTATTTCCAAATTCACTT (sugars l5 d11 l4, PS)” to CCCTAAAGTCCCAGG (sugars l3 d9 l3, PS), the calcium oscillation score falls from 143 % of control to 72.4 % of control.

Compared with “TCCTGGCCATCTTATGCTGA (sugars l3 d14 l3, PS)”, GAGGAACGTGTGGATG (sugars l3 d10 l3, PS) is lower in calcium oscillation score: 31.2 % of control for the first, 3.7 % of control for the second.

Going from “CTTACACACCACACACACT (sugars l1 d16 l2, PS)” to “GGGTGATATTGTCCAGGGAC (sugars l3 d14 l3, PS)”, the calcium oscillation score falls from 100 % of control to 0 % of control.

First: ACTTAAAATTTTTCTTATT (sugars l4 d11 l4, PS)
Second: CAACAGATATTCATTCC (sugars l4 d9 l4, PS)
The calcium oscillation score of the first is higher: 75.1 % of control for the first, 60.6 % of control for the second.

First: TTTCTCTCTTAACTTTATTT (sugars l4 d12 l4, PS)
Second: TCTTTATTAACACTCCACA (sugars l4 d13 l2, PS)
The calcium oscillation score of the first is higher: 90.4 % of control for the first, 62.5 % of control for the second.

First: CCTACTTTATTCCCTTA (sugars l2 d12 l3, PS)
Second: CAGCACACAGGCAGCCACTG (sugars l3 d14 l3, PS)
The calcium oscillation score of the first is higher: 95.9 % of control for the first, 23.8 % of control for the second.

First: ATCAGCCTTCATCACACT (sugars l4 d12 l2, PS)
Second: AGAAATAAGTGGTAGT (sugars l2 d11 l3, PS)
The calcium oscillation score of the first is lower: 87.7 % of control for the first, 102 % of control for the second.

First: TATTTCCAAATTCACTTTTA (sugars llddlldddddddddldlll, PS)
Second: CCATTCCCTCCAGAACCATC (sugars l3 d14 l3, PS)
The calcium oscillation score of the first is higher: 120 % of control for the first, 36.3 % of control for the second.

Compared with “CATGAGCACTAACTCTAAGT (sugars l3 d14 l3, PS)”, GAACTATTGATAAA (sugars l3 d8 l3, PS) is higher in calcium oscillation score: 47.6 % of control for the first, 85.7 % of control for the second.

Going from “CTTTTCTCAATGTAACC (sugars l4 d10 l3, PS)” to TGTTGCCTAATGAGCC (sugars l3 d10 l3, PS), the calcium oscillation score rises from 65.9 % of control to 172 % of control.

For “AACCCCTTCAACATCAGC (sugars l2 d12 l4, PS)”, the calcium oscillation score was 64.9 % of control.

Target: not listed separately
Experiment: rat primary cortical neurons, FLIPR, 25 uM ASO

Going from “CTAAATCCTTAATATCAAAC (sugars l4 d12 l4, PS)” to “CCAAATCTTATAATAACTAC (sugars ldlllddddddddddlldll, PS)”, the calcium oscillation score rises from 79.3 % of control to 80.2 % of control.

Going from “CAAACTTATATCTTTCAAAC (sugars l4 d12 l4, PS)” to “TACTCAAATATAACACCAAC (sugars l3 d14 l3, PS)”, the calcium oscillation score rises from 78.3 % of control to 85.6 % of control.

First: TACCATACAATAACTTTAAC (sugars l3 d14 l3, PS)
Second: CAACCAACAATACTTTAAAC (sugars l4 d12 l4, PS)
The calcium oscillation score of the first is lower: 76.5 % of control for the first, 85.6 % of control for the second.
